Measurements reported in the supplement of paper PMC12463676, “Small-molecule dissolution of stress granules by redox modulation benefits ALS models” (Nature Chemical Biology, 2025).

Legend:
lipoamide = compound: NC(=O)CCCCC1CCSS1 [lipoamide]; assay: thermal stability z-score vs DMSO; higher = more thermally stabilized by treatment; details: HeLa, lipoamide concentration 100 µM
Experimental: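 Cellular thermal proteome profiling in HeLa cells. Cells were treated with 100 µM lipoamide for 1 h, with or without 1 mM arsenate for a further 1 h, then heated to ten temperatures (37-66.3 °C), and soluble protein was quantified by TMT mass spectrometry relative to 0.1% DMSO controls. The thermal stability score (sum of log2 fold changes minus the abundance score) was transformed to a z-score; mean of n = 3 experiments.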

potassium arsenate = compound: O=[As]([O-])(O)O.[K+] [potassium arsenate]; assay: as above; details: HeLa; arsenate concentration 1 mM
Experimental: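 Cellular thermal proteome profiling in HeLa cells treated with 1 mM arsenate for 1 h (DMSO pretreatment), heated to ten temperatures (37-66.3 °C). Soluble protein was quantified by TMT mass spectrometry relative to DMSO controls; the thermal stability score was transformed to a z-score; mean of n = 3 experiments.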

[1] = arsenate co-treatment: 1 mM arsenate 1 h
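Also: each temperature applied for 3 min, abundance score taken as mean log2 fold change at the two lowest temperatures, z-score obtained by mean subtraction and division by SD.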

## SEC14L1 (UniProt Q92503)
lipoamide; [1]
  thermal stability z-score: -0.149
lipoamide; arsenate co-treatment: none
  thermal stability z-score: -0.0215
Potassium arsenate
  thermal stability z-score: -0.169

## SEC16A (UniProt O15027)
lipoamide; [1]
  thermal stability z-score: 0.237
lipoamide; arsenate co-treatment: none
  thermal stability z-score: 1.39
Potassium arsenate
  thermal stability z-score: 0.285

## SEC22A (UniProt Q96IW7)
lipoamide; [1]
  thermal stability z-score: 0.0383
lipoamide; arsenate co-treatment: none
  thermal stability z-score: -0.0317
Potassium arsenate
  thermal stability z-score: 0.684

## SEC22B (UniProt O75396)
lipoamide; [1]
  thermal stability z-score: -0.614
lipoamide; arsenate co-treatment: none
  thermal stability z-score: -0.0571
Potassium arsenate
  thermal stability z-score: -0.0449

## SEC23A (UniProt Q15436)
lipoamide; [1]
  thermal stability z-score: -0.106
lipoamide; arsenate co-treatment: none
  thermal stability z-score: 0.228
Potassium arsenate
  thermal stability z-score: -0.0157

## SEC23B (UniProt Q15437)
lipoamide; [1]
  thermal stability z-score: 1.19
lipoamide; arsenate co-treatment: none
  thermal stability z-score: 0.766
Potassium arsenate
  thermal stability z-score: 0.645

## SEC23IP (UniProt Q9Y6Y8)
lipoamide; [1]
  thermal stability z-score: -0.784
lipoamide; arsenate co-treatment: none
  thermal stability z-score: -1.16
Potassium arsenate
  thermal stability z-score: 1.54

## SEC24A (UniProt O95486)
lipoamide; [1]
  thermal stability z-score: -0.232
lipoamide; arsenate co-treatment: none
  thermal stability z-score: -0.0421
Potassium arsenate
  thermal stability z-score: 0.178

## SEC24B (UniProt O95487)
lipoamide; [1]
  thermal stability z-score: -0.766
lipoamide; arsenate co-treatment: none
  thermal stability z-score: -0.328
Potassium arsenate
  thermal stability z-score: 0.116

## SEC24C (UniProt P53992)
lipoamide; [1]
  thermal stability z-score: 0.0998
lipoamide; arsenate co-treatment: none
  thermal stability z-score: 0.0631
Potassium arsenate
  thermal stability z-score: 0.38

## SEC24D (UniProt O94855)
lipoamide; [1]
  thermal stability z-score: 0.087
lipoamide; arsenate co-treatment: none
  thermal stability z-score: -0.238
Potassium arsenate
  thermal stability z-score: -0.578

## SEC31A (UniProt O94979)
Chain of UniProt O94979 (O94979 whole entry): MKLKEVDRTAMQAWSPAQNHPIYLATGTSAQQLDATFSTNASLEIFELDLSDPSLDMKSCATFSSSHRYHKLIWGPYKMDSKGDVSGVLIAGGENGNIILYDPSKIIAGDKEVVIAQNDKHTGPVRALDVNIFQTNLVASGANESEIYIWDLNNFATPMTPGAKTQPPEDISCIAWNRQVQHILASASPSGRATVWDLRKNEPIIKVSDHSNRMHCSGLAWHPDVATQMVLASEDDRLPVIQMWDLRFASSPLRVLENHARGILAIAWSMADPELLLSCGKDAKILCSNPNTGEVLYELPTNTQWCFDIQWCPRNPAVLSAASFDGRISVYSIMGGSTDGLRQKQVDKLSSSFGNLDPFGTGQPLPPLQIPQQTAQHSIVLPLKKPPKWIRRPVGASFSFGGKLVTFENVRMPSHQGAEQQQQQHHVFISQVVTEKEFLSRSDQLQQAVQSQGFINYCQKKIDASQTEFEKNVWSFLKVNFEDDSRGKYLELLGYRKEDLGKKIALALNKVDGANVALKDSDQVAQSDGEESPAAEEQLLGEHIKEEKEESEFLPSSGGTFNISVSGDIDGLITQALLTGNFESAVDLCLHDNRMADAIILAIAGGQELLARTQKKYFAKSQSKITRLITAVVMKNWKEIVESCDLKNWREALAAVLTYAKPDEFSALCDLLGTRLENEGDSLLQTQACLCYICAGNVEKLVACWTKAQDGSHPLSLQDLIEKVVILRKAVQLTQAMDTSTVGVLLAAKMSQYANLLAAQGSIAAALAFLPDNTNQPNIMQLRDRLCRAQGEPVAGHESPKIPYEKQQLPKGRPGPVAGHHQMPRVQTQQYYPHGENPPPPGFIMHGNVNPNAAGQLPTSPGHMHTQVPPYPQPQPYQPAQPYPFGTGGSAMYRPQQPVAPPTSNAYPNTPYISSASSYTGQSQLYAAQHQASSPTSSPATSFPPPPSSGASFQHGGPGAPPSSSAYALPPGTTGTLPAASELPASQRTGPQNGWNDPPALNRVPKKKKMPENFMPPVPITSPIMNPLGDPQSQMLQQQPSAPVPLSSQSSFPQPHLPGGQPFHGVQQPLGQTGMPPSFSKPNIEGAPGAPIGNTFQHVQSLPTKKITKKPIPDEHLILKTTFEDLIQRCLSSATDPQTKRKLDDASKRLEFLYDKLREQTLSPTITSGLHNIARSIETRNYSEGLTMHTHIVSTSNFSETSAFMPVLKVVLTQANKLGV
lipoamide; [1]
  thermal stability z-score: 0.00351
lipoamide; arsenate co-treatment: none
  thermal stability z-score: -0.104
Potassium arsenate
  thermal stability z-score: 0.497

## SEC61A1 (UniProt P61619)
lipoamide; [1]
  thermal stability z-score: 1.11
lipoamide; arsenate co-treatment: none
  thermal stability z-score: 0.235
Potassium arsenate
  thermal stability z-score: 0.55

## SEC61B (UniProt P60468)
Chain of UniProt P60468 (P60468 whole entry): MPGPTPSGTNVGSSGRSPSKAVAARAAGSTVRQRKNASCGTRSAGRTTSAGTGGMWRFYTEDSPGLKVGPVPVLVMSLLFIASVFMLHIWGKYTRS
lipoamide; [1]
  thermal stability z-score: 0.911
lipoamide; arsenate co-treatment: none
  thermal stability z-score: 0.44
Potassium arsenate
  thermal stability z-score: 0.265

## SEC62 (UniProt Q99442)
lipoamide; [1]
  thermal stability z-score: 0.39
lipoamide; arsenate co-treatment: none
  thermal stability z-score: 0.266
Potassium arsenate
  thermal stability z-score: -0.75

## SEC63 (UniProt Q9UGP8)
lipoamide; [1]
  thermal stability z-score: -1.11
lipoamide; arsenate co-treatment: none
  thermal stability z-score: -0.484
Potassium arsenate
  thermal stability z-score: -0.767

## SEH1L (UniProt Q96EE3)
lipoamide; [1]
  thermal stability z-score: 0.886
lipoamide; arsenate co-treatment: none
  thermal stability z-score: 0.611
Potassium arsenate
  thermal stability z-score: 0.803

## SEL1L (UniProt Q9UBV2)
lipoamide; [1]
  thermal stability z-score: -2.16
lipoamide; arsenate co-treatment: none
  thermal stability z-score: -1.76
Potassium arsenate
  thermal stability z-score: 0.614

## SELENBP1 (UniProt Q13228)
lipoamide; [1]
  thermal stability z-score: 0.567
lipoamide; arsenate co-treatment: none
  thermal stability z-score: 0.164
Potassium arsenate
  thermal stability z-score: 0.784

## SELK (UniProt Q9Y6D0)
lipoamide; [1]
  thermal stability z-score: 0.406
lipoamide; arsenate co-treatment: none
  thermal stability z-score: -0.759
Potassium arsenate
  thermal stability z-score: 0.22

## SELO (UniProt Q9BVL4)
lipoamide; [1]
  thermal stability z-score: -0.214
lipoamide; arsenate co-treatment: none
  thermal stability z-score: -0.211
Potassium arsenate
  thermal stability z-score: -0.536

## SEMA3B (UniProt Q13214)
lipoamide; [1]
  thermal stability z-score: -1.02
lipoamide; arsenate co-treatment: none
  thermal stability z-score: -1.61
Potassium arsenate
  thermal stability z-score: 0.997

## SEMA3C (UniProt Q99985)
Chain of UniProt Q99985 (Q99985 whole entry): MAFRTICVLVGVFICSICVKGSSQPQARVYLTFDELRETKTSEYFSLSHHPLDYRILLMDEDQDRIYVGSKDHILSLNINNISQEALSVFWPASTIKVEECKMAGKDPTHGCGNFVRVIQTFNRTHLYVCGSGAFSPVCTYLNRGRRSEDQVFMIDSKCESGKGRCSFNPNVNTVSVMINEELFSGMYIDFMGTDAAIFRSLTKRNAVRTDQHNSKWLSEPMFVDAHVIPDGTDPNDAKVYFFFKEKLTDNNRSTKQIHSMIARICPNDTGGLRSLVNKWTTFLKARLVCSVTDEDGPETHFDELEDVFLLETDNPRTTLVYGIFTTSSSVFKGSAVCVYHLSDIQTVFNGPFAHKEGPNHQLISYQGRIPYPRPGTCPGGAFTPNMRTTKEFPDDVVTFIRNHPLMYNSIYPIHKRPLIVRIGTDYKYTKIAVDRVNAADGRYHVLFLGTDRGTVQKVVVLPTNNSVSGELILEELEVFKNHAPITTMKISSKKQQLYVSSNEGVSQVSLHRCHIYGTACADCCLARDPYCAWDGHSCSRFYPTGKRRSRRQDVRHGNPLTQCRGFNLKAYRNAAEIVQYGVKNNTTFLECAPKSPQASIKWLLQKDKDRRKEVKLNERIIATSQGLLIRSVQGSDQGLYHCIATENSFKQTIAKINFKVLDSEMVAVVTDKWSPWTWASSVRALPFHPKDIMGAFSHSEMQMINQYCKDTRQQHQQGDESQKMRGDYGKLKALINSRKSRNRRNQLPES
lipoamide; [1]
  thermal stability z-score: -0.0185
lipoamide; arsenate co-treatment: none
  thermal stability z-score: -0.402
Potassium arsenate
  thermal stability z-score: -0.147

## SENP6 (UniProt Q9GZR1)
lipoamide; [1]
  thermal stability z-score: -0.0511
lipoamide; arsenate co-treatment: none
  thermal stability z-score: -0.0676
Potassium arsenate
  thermal stability z-score: -0.18

## SEPHS1 (UniProt P49903)
lipoamide; [1]
  thermal stability z-score: 0.189
lipoamide; arsenate co-treatment: none
  thermal stability z-score: 0.065
Potassium arsenate
  thermal stability z-score: 0.00514

## SERBP1 (UniProt Q8NC51)
lipoamide; [1]
  thermal stability z-score: 0.533
lipoamide; arsenate co-treatment: none
  thermal stability z-score: 0.5
Potassium arsenate
  thermal stability z-score: -0.0206

## SERF1A (UniProt O75920)
lipoamide; [1]
  thermal stability z-score: -0.0837
lipoamide; arsenate co-treatment: none
  thermal stability z-score: 0.743
Potassium arsenate
  thermal stability z-score: -0.297

## SERF2 (UniProt P84101)
lipoamide; [1]
  thermal stability z-score: 0.715
lipoamide; arsenate co-treatment: none
  thermal stability z-score: 0.165
Potassium arsenate
  thermal stability z-score: -0.113

## SERINC1 (UniProt Q9NRX5)
Chain of UniProt Q9NRX5 (Q9NRX5 whole entry): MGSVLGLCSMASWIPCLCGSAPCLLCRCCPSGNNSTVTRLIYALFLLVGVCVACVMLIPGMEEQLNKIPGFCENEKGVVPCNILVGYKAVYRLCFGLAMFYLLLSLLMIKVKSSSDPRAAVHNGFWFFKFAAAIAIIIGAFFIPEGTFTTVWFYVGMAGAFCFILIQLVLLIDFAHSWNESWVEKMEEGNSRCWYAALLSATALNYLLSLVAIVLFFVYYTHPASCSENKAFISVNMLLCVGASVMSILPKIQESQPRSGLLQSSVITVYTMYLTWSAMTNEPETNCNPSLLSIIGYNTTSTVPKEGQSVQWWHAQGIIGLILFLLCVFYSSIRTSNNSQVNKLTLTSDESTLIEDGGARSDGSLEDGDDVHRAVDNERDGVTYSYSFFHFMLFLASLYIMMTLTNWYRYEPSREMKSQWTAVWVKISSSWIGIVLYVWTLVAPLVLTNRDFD
lipoamide; [1]
  thermal stability z-score: 0.282
lipoamide; arsenate co-treatment: none
  thermal stability z-score: -0.488
Potassium arsenate
  thermal stability z-score: 0.329

## SERINC3 (UniProt Q13530)
lipoamide; [1]
  thermal stability z-score: -0.42
lipoamide; arsenate co-treatment: none
  thermal stability z-score: -0.641
Potassium arsenate
  thermal stability z-score: -0.788

## SERPINB1 (UniProt P30740)
lipoamide; [1]
  thermal stability z-score: 0.391
lipoamide; arsenate co-treatment: none
  thermal stability z-score: 0.191
Potassium arsenate
  thermal stability z-score: 0.23

## SERPINB4 (UniProt P48594)
lipoamide; [1]
  thermal stability z-score: 0.303
lipoamide; arsenate co-treatment: none
  thermal stability z-score: 0.197
Potassium arsenate
  thermal stability z-score: -0.0226

## SERPINB5 (UniProt P36952)
lipoamide; [1]
  thermal stability z-score: 0.571
lipoamide; arsenate co-treatment: none
  thermal stability z-score: 0.206
Potassium arsenate
  thermal stability z-score: 0.0156

## SERPINB6 (UniProt P35237)
lipoamide; [1]
  thermal stability z-score: -0.206
lipoamide; arsenate co-treatment: none
  thermal stability z-score: -0.157
Potassium arsenate
  thermal stability z-score: -1.01

## SERPINB8 (UniProt P50452)
lipoamide; [1]
  thermal stability z-score: 0.899
lipoamide; arsenate co-treatment: none
  thermal stability z-score: 0.458
Potassium arsenate
  thermal stability z-score: -1.08

## SERPINH1 (UniProt P50454)
lipoamide; [1]
  thermal stability z-score: -3.31
lipoamide; arsenate co-treatment: none
  thermal stability z-score: -2.2
Potassium arsenate
  thermal stability z-score: 0.567

## SERPINI1 (UniProt Q99574)
lipoamide; [1]
  thermal stability z-score: -0.495
lipoamide; arsenate co-treatment: none
  thermal stability z-score: 0.0132
Potassium arsenate
  thermal stability z-score: 0.709

## SESN2 (UniProt P58004)
lipoamide; [1]
  thermal stability z-score: -0.134
lipoamide; arsenate co-treatment: none
  thermal stability z-score: 0.162
Potassium arsenate
  thermal stability z-score: -0.132

## SESTD1 (UniProt Q86VW0)
lipoamide; [1]
  thermal stability z-score: 0.202
lipoamide; arsenate co-treatment: none
  thermal stability z-score: 0.128
Potassium arsenate
  thermal stability z-score: 0.352

## SET (UniProt Q01105)
lipoamide; [1]
  thermal stability z-score: 0.154
lipoamide; arsenate co-treatment: none
  thermal stability z-score: 0.00988
Potassium arsenate
  thermal stability z-score: -0.503

## SETD1A (UniProt O15047)
lipoamide; [1]
  thermal stability z-score: 0.233
lipoamide; arsenate co-treatment: none
  thermal stability z-score: -0.516
Potassium arsenate
  thermal stability z-score: -0.413

## SETD3 (UniProt Q86TU7)
lipoamide; [1]
  thermal stability z-score: -0.479
lipoamide; arsenate co-treatment: none
  thermal stability z-score: -0.251
Potassium arsenate
  thermal stability z-score: 0.0633

## SETD7 (UniProt Q8WTS6)
Chain of UniProt Q8WTS6 (Q8WTS6 whole entry): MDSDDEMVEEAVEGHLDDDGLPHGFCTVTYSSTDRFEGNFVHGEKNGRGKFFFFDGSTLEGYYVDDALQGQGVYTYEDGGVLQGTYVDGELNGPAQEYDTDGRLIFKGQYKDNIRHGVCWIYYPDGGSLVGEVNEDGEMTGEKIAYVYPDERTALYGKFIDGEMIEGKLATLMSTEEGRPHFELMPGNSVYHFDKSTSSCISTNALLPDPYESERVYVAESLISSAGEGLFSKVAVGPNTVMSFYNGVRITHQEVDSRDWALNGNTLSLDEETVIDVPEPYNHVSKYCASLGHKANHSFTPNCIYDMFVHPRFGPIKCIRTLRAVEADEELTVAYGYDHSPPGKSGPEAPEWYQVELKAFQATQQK
lipoamide; [1]
  thermal stability z-score: -0.766
lipoamide; arsenate co-treatment: none
  thermal stability z-score: 0.0448
Potassium arsenate
  thermal stability z-score: -0.402

## SETDB1 (UniProt Q15047)
lipoamide; [1]
  thermal stability z-score: -0.239
lipoamide; arsenate co-treatment: none
  thermal stability z-score: -0.253
Potassium arsenate
  thermal stability z-score: -0.254

## SETMAR (UniProt Q53H47)
Chain of UniProt Q53H47 (Q53H47 whole entry): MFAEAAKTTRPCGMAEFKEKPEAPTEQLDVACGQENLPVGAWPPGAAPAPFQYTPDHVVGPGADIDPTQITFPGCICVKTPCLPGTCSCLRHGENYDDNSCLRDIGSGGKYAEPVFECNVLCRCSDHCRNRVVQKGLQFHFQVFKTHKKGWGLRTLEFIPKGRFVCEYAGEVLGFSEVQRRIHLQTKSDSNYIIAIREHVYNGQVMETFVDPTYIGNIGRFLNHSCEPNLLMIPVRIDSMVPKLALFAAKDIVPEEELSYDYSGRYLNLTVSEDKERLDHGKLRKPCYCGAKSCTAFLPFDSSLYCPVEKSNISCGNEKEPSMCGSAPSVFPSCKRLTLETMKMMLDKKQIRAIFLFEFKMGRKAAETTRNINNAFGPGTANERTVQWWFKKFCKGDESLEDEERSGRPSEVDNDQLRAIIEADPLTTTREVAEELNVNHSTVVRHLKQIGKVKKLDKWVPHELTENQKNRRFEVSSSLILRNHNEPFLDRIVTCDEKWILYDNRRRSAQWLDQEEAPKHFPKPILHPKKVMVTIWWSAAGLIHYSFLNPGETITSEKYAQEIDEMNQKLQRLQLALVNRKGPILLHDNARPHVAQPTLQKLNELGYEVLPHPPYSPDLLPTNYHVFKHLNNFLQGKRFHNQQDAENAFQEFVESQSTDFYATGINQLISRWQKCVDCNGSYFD
lipoamide; [1]
  thermal stability z-score: -0.298
lipoamide; arsenate co-treatment: none
  thermal stability z-score: -0.25
Potassium arsenate
  thermal stability z-score: -0.122

## SETX (UniProt Q7Z333)
lipoamide; [1]
  thermal stability z-score: -0.122
lipoamide; arsenate co-treatment: none
  thermal stability z-score: -0.0676
Potassium arsenate
  thermal stability z-score: -0.00223

## SEZ6L2 (UniProt Q6UXD5)
Chain of UniProt Q6UXD5 (Q6UXD5 whole entry): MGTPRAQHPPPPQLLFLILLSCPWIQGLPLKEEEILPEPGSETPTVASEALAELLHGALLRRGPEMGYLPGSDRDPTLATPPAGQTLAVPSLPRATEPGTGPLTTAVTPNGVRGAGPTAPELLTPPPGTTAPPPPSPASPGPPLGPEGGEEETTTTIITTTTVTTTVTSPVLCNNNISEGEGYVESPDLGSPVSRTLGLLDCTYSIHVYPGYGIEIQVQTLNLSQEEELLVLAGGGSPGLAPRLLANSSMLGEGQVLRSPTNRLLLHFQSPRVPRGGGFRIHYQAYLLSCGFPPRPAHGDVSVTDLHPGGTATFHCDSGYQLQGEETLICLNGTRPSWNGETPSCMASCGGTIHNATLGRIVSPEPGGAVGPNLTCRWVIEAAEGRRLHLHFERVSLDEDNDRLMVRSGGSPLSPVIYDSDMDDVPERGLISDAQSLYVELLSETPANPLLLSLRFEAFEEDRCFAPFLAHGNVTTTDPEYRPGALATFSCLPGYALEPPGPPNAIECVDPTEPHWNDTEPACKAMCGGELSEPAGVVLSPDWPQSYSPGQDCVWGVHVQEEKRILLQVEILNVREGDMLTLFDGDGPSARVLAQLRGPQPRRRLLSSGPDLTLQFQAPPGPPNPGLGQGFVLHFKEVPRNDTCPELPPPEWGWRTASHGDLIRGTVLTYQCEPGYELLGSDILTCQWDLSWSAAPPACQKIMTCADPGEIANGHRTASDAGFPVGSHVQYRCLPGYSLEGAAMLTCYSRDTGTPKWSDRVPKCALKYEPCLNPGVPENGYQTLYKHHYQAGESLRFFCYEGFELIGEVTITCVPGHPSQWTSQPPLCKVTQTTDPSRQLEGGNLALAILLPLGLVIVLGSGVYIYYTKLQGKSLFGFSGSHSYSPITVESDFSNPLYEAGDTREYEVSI
lipoamide; [1]
  thermal stability z-score: 0.143
lipoamide; arsenate co-treatment: none
  thermal stability z-score: 2.4
Potassium arsenate
  thermal stability z-score: 3.82

## SF1 (UniProt Q15637)
lipoamide; [1]
  thermal stability z-score: 0.425
lipoamide; arsenate co-treatment: none
  thermal stability z-score: 0.249
Potassium arsenate
  thermal stability z-score: 0.681

## SF3A1 (UniProt Q15459)
lipoamide; [1]
  thermal stability z-score: -0.152
lipoamide; arsenate co-treatment: none
  thermal stability z-score: 0.106
Potassium arsenate
  thermal stability z-score: -1.3

## SF3A2 (UniProt Q15428)
lipoamide; [1]
  thermal stability z-score: -0.0843
lipoamide; arsenate co-treatment: none
  thermal stability z-score: -0.43
Potassium arsenate
  thermal stability z-score: -0.0497

## SF3A3 (UniProt Q12874)
Chain of UniProt Q12874 (Q12874 whole entry): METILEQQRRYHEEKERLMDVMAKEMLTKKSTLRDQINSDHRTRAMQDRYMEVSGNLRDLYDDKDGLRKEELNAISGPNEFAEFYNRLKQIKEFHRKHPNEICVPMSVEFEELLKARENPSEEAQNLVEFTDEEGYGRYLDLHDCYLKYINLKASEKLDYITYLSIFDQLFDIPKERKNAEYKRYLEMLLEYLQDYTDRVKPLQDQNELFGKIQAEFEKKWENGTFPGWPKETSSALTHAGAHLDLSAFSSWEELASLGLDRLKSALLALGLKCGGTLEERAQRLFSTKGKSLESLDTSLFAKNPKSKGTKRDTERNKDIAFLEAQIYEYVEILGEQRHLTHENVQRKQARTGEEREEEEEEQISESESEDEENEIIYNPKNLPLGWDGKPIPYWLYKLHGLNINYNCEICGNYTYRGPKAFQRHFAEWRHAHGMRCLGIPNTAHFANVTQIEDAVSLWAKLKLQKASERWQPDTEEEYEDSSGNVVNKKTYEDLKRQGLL
lipoamide; [1]
  thermal stability z-score: 0.351
lipoamide; arsenate co-treatment: none
  thermal stability z-score: 0.639
Potassium arsenate
  thermal stability z-score: -0.503

## SF3B1 (UniProt O75533)
lipoamide; [1]
  thermal stability z-score: 2.46
lipoamide; arsenate co-treatment: none
  thermal stability z-score: 0.661
Potassium arsenate
  thermal stability z-score: -0.873

## SF3B2 (UniProt Q13435)
lipoamide; [1]
  thermal stability z-score: 0.498
lipoamide; arsenate co-treatment: none
  thermal stability z-score: 0.403
Potassium arsenate
  thermal stability z-score: -0.135

## SF3B3 (UniProt Q15393)
lipoamide; [1]
  thermal stability z-score: 1.49
lipoamide; arsenate co-treatment: none
  thermal stability z-score: 0.828
Potassium arsenate
  thermal stability z-score: -0.681

## SF3B4 (UniProt Q15427)
lipoamide; [1]
  thermal stability z-score: 0.152
lipoamide; arsenate co-treatment: none
  thermal stability z-score: -0.211
Potassium arsenate
  thermal stability z-score: -0.243
